# Tested on: patients with advanced solid tumours
# Assay: Phase 1/2 dose-escalation/expansion study: safety, TEAEs (NCI CTCAE v4.03), DLT, MTD, RP2D
# Format: in vivo
# Source text: The objectives of this first-in-human, Phase 1/2, open-label, dose-escalation study of SRA737 as a single agent were to establish the safety profile, define the maximum tolerated dose (MTD) and the recommended Phase 2 dose (RP2D) and schedule, and to evaluate preliminary efficacy in prospectively selected genetically defined patients enrolled in indication-specific expansion cohorts. Secondary objectives included defining the pharmacokinetic (PK) profile of SRA737.
# The study used an accelerated titration design in dose escalation beginning with single subject dose-level cohorts. Doubling of the SRA737 dose was permitted in the subsequent cohort if a dose level was determined to be safe by the cohort review committee consisting of the lead investigator, study investigators representing the site(s) currently enrolling patients, and representatives of the study sponsor. In the event of any SRA737-related adverse event Grade 2 or greater toxicity during Cycle 1, the cohort was to be expanded to 3 to 6 subjects. Thereafter the study followed a rolling 6 design wherein once the first subject completed the 7-day observation period following the first dose of SRA737, subsequent subjects in that cohort started treatment. […] Enrolment of expansion cohorts at the highest dose level determined to be safe and tolerable was initiated prior to the completion of dose escalation and determination of MTD or RP2D.
# A single dose of SRA737 was given at one visit on Day −7 to Day −4 (prior to the start of Cycle 1) for PK assessments. SRA737 was then administered orally on a continuous daily dosing schedule in 28-day cycles. An accelerated titration design was used with single-patient dose-escalation cohorts starting with 20 mg SRA737 administered once daily (QD) in the first cohort, with dose doubling in subsequent single-patient cohorts. If a patient had SRA737-related Grade 2 toxicity in a dose level cohort during Cycle 1, that cohort was expanded to 3 to 6 patients, and subsequent cohorts followed a rolling six design.
# Patients were assessed for DLT from the first SRA737 dose (Day −7 to Day −4) until the end of Cycle 1 (up to 35 days).
# Expansion cohorts including up to 20 patients with one of the 6 specified indication-specific tumour types, were treated at SRA737 doses selected by the cohort review committee based on all available safety and PK data; expansion doses were at or below the maximum tolerated dose (MTD) from the dose-escalation phase. Patients could continue treatment until disease progression or discontinuation from study due to unacceptable toxicity, investigator/sponsor decision, or withdrawal of consent.
# Safety assessments including adverse events, laboratory parameters, electrocardiograms (ECGs), and echocardiograms were conducted throughout treatment and until 30 days after the last study treatment or initiation of new anticancer treatment.
# The Safety Evaluable population included all patients who received at least one dose of SRA737.
# The DLT window is defined from the first dose (Day -7 to Day -4) until the end of Cycle 1 (up to 35 days).
# A DLT is defined as any highly probably or probably SRA737-related event of: […]
# [1] = 1300 mg QD cohort, three patients enrolled
# [2] = 49 patients treated at SRA737 doses >800 mg QD
compound,measurement,setting,value
"N#Cc1cnc(Nc2cc(NC[C@H]3CNCCO3)c(C(F)(F)F)cn2)cn1 [SRA737, (R)-5-((4-((morpholin-2-ylmethyl)amino)-5-(trifluoromethyl)pyridin-2-yl)amino)pyr azine-2-carbonitrile]",Dose-limiting toxicity (DLT),"500 mg BID, one patient, four evaluable for DLT",Grade 4 thrombocytopenia
same,Grade 1–2 TEAEs of diarrhoea,800 mg SRA737 dose level,68 % of patients
same,Grade 1–2 TEAEs of nausea,800 mg SRA737 dose level,78 % of patients
same,Grade 1–2 TEAEs of vomiting,800 mg SRA737 dose level,50 % of patients
same,patients with Grade 3 diarrhoea (GI toxicity above Grade 2),800 mg dose level,one
same,Dose-limiting toxicities (DLTs),1000 mg QD dose-escalation cohort (or any lower-dose cohorts),No DLTs
same,patients requiring dose reduction to 600 mg due to GI intolerability,"1000 mg QD, 10 evaluable patients",3 patients
same,Grade 1–2 TEAEs of diarrhoea,1000 mg SRA737 dose level,72 % of patients
same,Grade 1–2 TEAEs of nausea,1000 mg SRA737 dose level,65 % of patients
same,Grade 1–2 TEAEs of vomiting,1000 mg SRA737 dose level,63 % of patients
same,patients with Grade 3 diarrhoea (GI toxicity above Grade 2),1000 mg dose level,1 patient
same,patients with both Grade 3 nausea and vomiting,1000 mg dose level,single patient
same,"patients with dose-limiting GI intolerability (Grade 1–2 nausea, vomiting, and/or diarrhoea)",[1],2 patients
same,patients with dose-limiting Grade 3 neutropenia,[1],1 patient
same,discontinued due to SRA737-related TEAEs,16 patients of 107,15.0%
same,Adverse events leading to treatment discontinuation,34 patients of 107,31.8%
same,Grade 3 or higher TEAE related to SRA737: fatigue,[2],4%
same,Grade 3 or higher TEAE related to SRA737: neutropenia,[2],10%
same,Grade 3 or higher TEAE related to SRA737: rash/rash maculopapular combined,[2],6%
same,Any SRA737-related Grade ≥3 treatment-emergent adverse event (TEAE),Overall (N = 107),33 (30.8) n (%)
same,"Any SRA737-related treatment-emergent adverse event (TEAE), any grade",Overall (N = 107),98 (91.6) n (%)
same,SRA737-related TEAE of Grade 3 or higher: Aspartate aminotransferase increased,Overall (N = 107),2 (1.9) n (%)
same,SRA737-related TEAE of Grade 3 or higher: Diarrhoea,Overall (N = 107),2 (1.9) n (%)
same,SRA737-related TEAE of Grade 3 or higher: Dyspnoea,Overall (N = 107),2 (1.9) n (%)
same,SRA737-related TEAE of Grade 3 or higher: Fatigue,Overall (N = 107),2 (1.9) n (%)
same,SRA737-related TEAE of Grade 3 or higher: Lymphocyte count decreased,Overall (N = 107),3 (2.8) n (%)
same,SRA737-related TEAE of Grade 3 or higher: Neutropenia,Overall (N = 107),9 (8.4) n (%)
same,SRA737-related TEAE of Grade 3 or higher: Rash,Overall (N = 107),3 (2.8) n (%)
same,SRA737-related TEAE of Grade 3 or higher: Rash maculopapular,Overall (N = 107),3 (2.8) n (%)
same,SRA737-related TEAE of Grade 3 or higher: Thrombocytopenia,Overall (N = 107),3 (2.8) n (%)
same,SRA737-related TEAE of any grade: Anaemia,Overall (N = 107),16 (15.0) n (%)
same,SRA737-related TEAE of any grade: Decreased Appetite,Overall (N = 107),19 (17.8) n (%)
same,SRA737-related TEAE of any grade: Diarrhoea,Overall (N = 107),67 (62.6) n (%)
same,SRA737-related TEAE of any grade: Fatigue,Overall (N = 107),41 (38.3) n (%)
same,SRA737-related TEAE of any grade: Nausea,Overall (N = 107),64 (59.8) n (%)
same,SRA737-related TEAE of any grade: Neutropenia,Overall (N = 107),17 (15.9) n (%)
same,SRA737-related TEAE of any grade: Vomiting,Overall (N = 107),49 (45.8) n (%)
same,Any SRA737-related Grade ≥3 treatment-emergent adverse event (TEAE),SRA737 dose > 800 mg (N = 49),19 (38.8) n (%)
same,"Any SRA737-related treatment-emergent adverse event (TEAE), any grade",SRA737 dose > 800 mg (N = 49),47 (95.9) n (%)
same,SRA737-related TEAE of Grade 3 or higher: Aspartate aminotransferase increased,SRA737 dose > 800 mg (N = 49),0 n (%)
same,SRA737-related TEAE of Grade 3 or higher: Diarrhoea,SRA737 dose > 800 mg (N = 49),1 (2.0) n (%)
same,SRA737-related TEAE of Grade 3 or higher: Dyspnoea,SRA737 dose > 800 mg (N = 49),0 n (%)
same,SRA737-related TEAE of Grade 3 or higher: Fatigue,SRA737 dose > 800 mg (N = 49),2 (4.1) n (%)
same,SRA737-related TEAE of Grade 3 or higher: Lymphocyte count decreased,SRA737 dose > 800 mg (N = 49),0 n (%)
same,SRA737-related TEAE of Grade 3 or higher: Neutropenia,SRA737 dose > 800 mg (N = 49),5 (10.2) n (%)
